Experiment: xn = mol fraction of the nth substance listed
Conditions: 101 kPa

CCC(=O)O.CCC(=O)[O-].CC[NH+](CC)CCO + CCCC[n+]1ccn(C)c1.COP(=O)([O-])OC
viscosity [mPa·s]
Conditions	x1 = 0.08	x1 = 0.1549	x1 = 0.2364	x1 = 0.3281	x1 = 0.4183	x1 = 0.4953	x1 = 0.6252	x1 = 0.7416	x1 = 0.8667	x1 = 1
278.15 K	–	1099.1	655	428	329	294	241.4	208.2	184.2	244
283.15 K	1248.1	726	–	297	230.3	–	–	–	131	169
288.15 K	822	494	311	211.1	165.3	147.5	–	107.1	95.3	120.7
293.15 K	559	346	223.3	–	121.5	108.6	91.7	79.5	–	88.3
298.15 K	391	248.6	164.2	114.9	91.4	81.8	69.5	–	53.8	–
303.15 K	–	183.2	–	87.6	–	62.8	53.7	46.6	–	50.6
308.15 K	206.6	137.9	94.7	68	–	49.2	42.2	36.7	–	39.4
313.15 K	155.3	105.8	73.9	–	43.7	–	33.7	29.3	26.3	31.2
318.15 K	119	82.7	58.7	43.2	35.28	31.69	–	23.81	21.38	25.1
323.15 K	92.7	65.7	–	35.21	28.91	–	22.51	19.58	17.6	20.5
328.15 K	73.5	52.95	–	29.06	23.98	21.58	18.74	–	–	16.89
333.15 K	59.07	43.24	31.98	24.27	20.13	–	15.77	13.7	–	–
338.15 K	–	35.76	–	20.49	17.07	15.33	–	–	10.47	11.89
343.15 K	39.67	29.9	22.63	17.47	14.6	–	11.5	9.98	8.98	10.12
348.15 K	33.08	–	19.32	15.03	–	11.29	–	8.63	–	8.68
353.15 K	27.89	–	16.64	13.04	–	9.81	8.67	7.52	6.75	7.5
358.15 K	23.73	18.56	14.45	11.4	–	–	–	6.59	5.91	6.52
363.15 K	20.39	16.1	12.65	10.04	8.5	7.58	6.72	–	5.21	–
368.15 K	–	–	11.15	8.9	7.55	6.73	5.98	–	4.62	5.01
373.15 K	15.41	12.4	9.89	7.94	6.75	6.01	5.34	–	4.11	–

CCCC(=O)[O-].CC[NH+](CC)CCO + CCCC[n+]1ccn(C)c1.COP(=O)([O-])OC
viscosity [mPa·s]
Conditions	x1 = 0.1023	x1 = 0.1989	x1 = 0.3026	x1 = 0.3985	x1 = 0.498	x1 = 0.6001	x1 = 0.6613	x1 = 0.8006	x1 = 0.8788	x1 = 1
278.15 K	2058	1152.2	671	445	322.4	255.2	231	–	191	–
283.15 K	1309.9	764	459	311.5	228.5	–	165.4	140.9	136.5	–
288.15 K	–	522	322.9	223.4	165.9	133.2	–	103.2	99.6	96.9
293.15 K	587	367	233	–	–	–	90.5	77.1	–	71.6
298.15 K	411	–	172.1	122.9	93.3	75.8	69	58.8	56.4	54
303.15 K	294.9	–	129.8	94	72	–	53.58	45.58	43.6	41.42
308.15 K	216.6	146.7	99.8	–	56.55	46.34	42.29	35.94	34.28	32.34
313.15 K	162.7	112.5	–	57.98	–	37.1	–	28.77	27.36	25.64
318.15 K	–	87.9	61.99	46.61	36.5	–	27.53	–	22.14	20.63
323.15 K	96.9	–	49.98	37.99	29.93	24.77	–	19.2	18.14	16.82
328.15 K	76.7	56.15	40.85	31.37	24.84	–	18.87	15.97	15.04	13.87
333.15 K	61.58	45.81	33.8	26.18	20.85	17.35	15.88	13.42	12.6	11.56
338.15 K	50.11	37.83	28.27	22.09	17.68	14.74	–	–	10.66	–
343.15 K	41.29	–	23.89	–	15.13	–	11.56	9.74	9.09	8.27
348.15 K	34.41	26.65	20.38	16.18	–	10.92	9.99	8.41	7.82	7.08
353.15 K	28.99	22.7	–	14.02	11.35	9.51	8.69	–	–	–
358.15 K	24.65	19.51	15.22	–	9.95	8.33	–	6.39	5.92	–
363.15 K	21.15	16.9	13.3	10.76	8.77	7.36	6.72	5.63	5.2	4.65
368.15 K	18.3	14.76	–	9.52	7.78	6.53	5.97	4.99	4.6	–
373.15 K	15.96	12.97	10.37	8.47	6.95	5.84	5.33	4.45	4.08	3.61
